Test results: PubChem BioAssay AID2060906 (Molecular Pharmacology Branch, DTP, NCI, 2025)

System: 485176-168-R4-J1-PDC complex spheroid growth
Assay: Anticancer human tumor 485176-168-R4-J1-PDC patient-derived pancreatic adenocarcinoma cell line growth inhibition [RAS]
Conditions: for IC50: curve of first compound; for viability, T/C: stronger effect = lower value
Procedure, shortened: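 Agents were tested in combination matrices in half-log decrements from a top concentration at or near clinical Cmax (10 microM if undetermined). Targets were multi-cell spheroids of tumour lines plus HUVEC and MSC stromal cells.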

[1] = second compound 0.0316 µM, first compound 0.0316 µM
[2] = second compound 0.0316 µM, first compound 0.1 µM
[3] = second compound 0.0316 µM, first compound 0.316 µM
[4] = second compound 0.0316 µM, first compound 1 µM
[5] = second compound 0.0316 µM, first compound 3.16 µM
[6] = second compound 0.0316 µM, first compound 10 µM
[7] = second compound 0.1 µM, first compound 0.0316 µM
[8] = second compound 0.1 µM, first compound 0.1 µM
[9] = second compound 0.1 µM, first compound 0.316 µM
[10] = second compound 0.1 µM, first compound 1 µM
[11] = second compound 0.1 µM, first compound 3.16 µM
[12] = second compound 0.1 µM, first compound 10 µM
[13] = second compound 0.316 µM, first compound 0.0316 µM
[14] = second compound 0.316 µM, first compound 0.1 µM
[15] = second compound 0.316 µM, first compound 0.316 µM
[16] = second compound 0.316 µM, first compound 1 µM
[17] = second compound 0.316 µM, first compound 3.16 µM
[18] = second compound 0.316 µM, first compound 10 µM
[19] = second compound 1 µM, first compound 0.0316 µM
[20] = second compound 1 µM, first compound 0.1 µM
[21] = second compound 1 µM, first compound 0.316 µM
[22] = second compound 1 µM, first compound 1 µM
[23] = second compound 1 µM, first compound 3.16 µM
[24] = second compound 1 µM, first compound 10 µM
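Further: spheroids exposed to compounds for seven days before readout.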
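Wherever viability, T/C is given: luminescence viability expressed relative to DMSO vehicle wells set as 100%.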

## CC1(C)CCC(Nc2ncc(C(F)(F)F)c(-c3c[nH]c4c(P(C)(C)=O)c(C#N)ccc34)n2)CN1 (stereo unspecified) + CCn1c(-c2cccnc2C(C)OC)c2c3cc(ccc31)N1CCOC(CC(NC(=O)C(C(C)C)N(C)C(=O)C3(F)CCN(C(=O)C#CC(C)(C)N(C)C)CC3)C(=O)N3CCCC(N3)C(=O)OCC(C)(C)C2)C1
Second compound 0.000949 µM
  IC50: > 0.3 µM
Second compound 0.003 µM
  IC50: > 0.3 µM
Second compound 0.00949 µM
  IC50: 0.0668 µM
Second compound 0.03 µM
  IC50: 0.0265 µM
Second compound 0.0949 µM
  IC50: 0.0208 µM
Second compound 0.3 µM
  IC50: 0.0132 µM
Second compound 0.000949 µM, first compound 0.000949 µM
  viability, T/C: 91.9%
Second compound 0.000949 µM, first compound 0.003 µM
  viability, T/C: 93.3%
Second compound 0.000949 µM, first compound 0.00949 µM
  viability, T/C: 86.8%
Second compound 0.000949 µM, first compound 0.03 µM
  viability, T/C: 59.5%
Second compound 0.000949 µM, first compound 0.0949 µM
  viability, T/C: 52.8%
Second compound 0.000949 µM, first compound 0.3 µM
  viability, T/C: 54.1%
Second compound 0.003 µM, first compound 0.000949 µM
  viability, T/C: 99.1%
Second compound 0.003 µM, first compound 0.003 µM
  viability, T/C: 90.7%
Second compound 0.003 µM, first compound 0.00949 µM
  viability, T/C: 87.5%
Second compound 0.003 µM, first compound 0.03 µM
  viability, T/C: 58.3%
Second compound 0.003 µM, first compound 0.0949 µM
  viability, T/C: 54.5%
Second compound 0.003 µM, first compound 0.3 µM
  viability, T/C: 51.7%
Second compound 0.00949 µM, first compound 0.000949 µM
  viability, T/C: 97.6%
Second compound 0.00949 µM, first compound 0.003 µM
  viability, T/C: 91%
Second compound 0.00949 µM, first compound 0.00949 µM
  viability, T/C: 82.2%
Second compound 0.00949 µM, first compound 0.03 µM
  viability, T/C: 54.1%
Second compound 0.00949 µM, first compound 0.0949 µM
  viability, T/C: 50.5%
Second compound 0.00949 µM, first compound 0.3 µM
  viability, T/C: 44.9%
Second compound 0.03 µM, first compound 0.000949 µM
  viability, T/C: 89.4%
Second compound 0.03 µM, first compound 0.003 µM
  viability, T/C: 112%
Second compound 0.03 µM, first compound 0.00949 µM
  viability, T/C: 73.5%
Second compound 0.03 µM, first compound 0.03 µM
  viability, T/C: 54.5%
Second compound 0.03 µM, first compound 0.0949 µM
  viability, T/C: 39%
Second compound 0.03 µM, first compound 0.3 µM
  viability, T/C: 47.9%
Second compound 0.0949 µM, first compound 0.000949 µM
  viability, T/C: 77.9%
Second compound 0.0949 µM, first compound 0.003 µM
  viability, T/C: 87.1%
Second compound 0.0949 µM, first compound 0.00949 µM
  viability, T/C: 67.7%
Second compound 0.0949 µM, first compound 0.03 µM
  viability, T/C: 42.2%
Second compound 0.0949 µM, first compound 0.0949 µM
  viability, T/C: 34.6%
Second compound 0.0949 µM, first compound 0.3 µM
  viability, T/C: 34.1%
Second compound 0.3 µM, first compound 0.000949 µM
  viability, T/C: 81.9%
Second compound 0.3 µM, first compound 0.003 µM
  viability, T/C: 69.1%
Second compound 0.3 µM, first compound 0.00949 µM
  viability, T/C: 58.7%
Second compound 0.3 µM, first compound 0.03 µM
  viability, T/C: 34%
Second compound 0.3 µM, first compound 0.0949 µM
  viability, T/C: 26.8%
Second compound 0.3 µM, first compound 0.3 µM
  viability, T/C: 30.5%

## NC1c2ccccc2OC12CCN(c1cnc3c(N4CCCc5ncccc54)n[nH]c3n1)CC2 (stereo unspecified) + C=CC(=O)N1CCN(c2nc(OCC3CCCN3C)nc3c(F)c(-c4nc(N)cc(C)c4C(F)(F)F)c(Cl)cc23)C(C)C1
Second compound 0.00316 µM
  IC50: > 10 µM
Second compound 0.01 µM
  IC50: > 10 µM
Second compound 0.0316 µM
  IC50: > 10 µM
Second compound 0.1 µM
  IC50: > 10 µM
Second compound 0.316 µM
  IC50: > 10 µM
Second compound 1 µM
  IC50: > 10 µM
Second compound 0.00316 µM, first compound 0.0316 µM
  viability, T/C: 81.4%
Second compound 0.00316 µM, first compound 0.1 µM
  viability, T/C: 77.9%
Second compound 0.00316 µM, first compound 0.316 µM
  viability, T/C: 71.7%
Second compound 0.00316 µM, first compound 1 µM
  viability, T/C: 80.1%
Second compound 0.00316 µM, first compound 3.16 µM
  viability, T/C: 77.2%
Second compound 0.00316 µM, first compound 10 µM
  viability, T/C: 55.8%
Second compound 0.01 µM, first compound 0.0316 µM
  viability, T/C: 84.1%
Second compound 0.01 µM, first compound 0.1 µM
  viability, T/C: 75.3%
Second compound 0.01 µM, first compound 0.316 µM
  viability, T/C: 87.9%
Second compound 0.01 µM, first compound 1 µM
  viability, T/C: 70%
Second compound 0.01 µM, first compound 3.16 µM
  viability, T/C: 79.1%
Second compound 0.01 µM, first compound 10 µM
  viability, T/C: 62.9%
[1]
  viability, T/C: 82.9%
[2]
  viability, T/C: 66.2%
[3]
  viability, T/C: 76.7%
[4]
  viability, T/C: 85.3%
[5]
  viability, T/C: 72.9%
[6]
  viability, T/C: 59.1%
[7]
  viability, T/C: 91.2%
[8]
  viability, T/C: 86.5%
[9]
  viability, T/C: 71%
[10]
  viability, T/C: 72.6%
[11]
  viability, T/C: 84%
[12]
  viability, T/C: 81.7%
[13]
  viability, T/C: 82.7%
[14]
  viability, T/C: 91.5%
[15]
  viability, T/C: 82.5%
[16]
  viability, T/C: 91.5%
[17]
  viability, T/C: 80.2%
[18]
  viability, T/C: 61%
[19]
  viability, T/C: 91.5%
[20]
  viability, T/C: 68.8%
[21]
  viability, T/C: 69.5%
[22]
  viability, T/C: 72.1%
[23]
  viability, T/C: 74%
[24]
  viability, T/C: 66.2%

## NC1c2ccccc2OC12CCN(c1cnc3c(N4CCCc5ncccc54)n[nH]c3n1)CC2 (stereo unspecified) + C#Cc1c(F)ccc2cc(O)cc(-c3ncc4c(N5CC6CCC(C5)N6)nc(OCC56CCCN5CC(F)C6)nc4c3F)c12
Second compound 0.0316 µM
  IC50: > 10 µM
Second compound 0.1 µM
  IC50: > 10 µM
Second compound 0.316 µM
  IC50: > 10 µM
Second compound 1 µM
  IC50: > 10 µM
Second compound 3.16 µM
  IC50: > 10 µM
Second compound 10 µM
  IC50: > 10 µM
[1]
  viability, T/C: 77%
[2]
  viability, T/C: 79.1%
[3]
  viability, T/C: 78.5%
[4]
  viability, T/C: 77.6%
[5]
  viability, T/C: 75.3%
[6]
  viability, T/C: 62.4%
[7]
  viability, T/C: 83%
[8]
  viability, T/C: 82.9%
[9]
  viability, T/C: 78.7%
[10]
  viability, T/C: 76.2%
[11]
  viability, T/C: 90.1%
[12]
  viability, T/C: 62.5%
[13]
  viability, T/C: 78.4%
[14]
  viability, T/C: 82.8%
[15]
  viability, T/C: 73.9%
[16]
  viability, T/C: 72.6%
[17]
  viability, T/C: 79.3%
[18]
  viability, T/C: 58.8%
[19]
  viability, T/C: 78.6%
[20]
  viability, T/C: 74%
[21]
  viability, T/C: 85.5%
[22]
  viability, T/C: 80.6%
[23]
  viability, T/C: 87.8%
[24]
  viability, T/C: 70%
Second compound 3.16 µM, first compound 0.0316 µM
  viability, T/C: 79.8%
Second compound 3.16 µM, first compound 0.1 µM
  viability, T/C: 68.9%
Second compound 3.16 µM, first compound 0.316 µM
  viability, T/C: 64.5%
Second compound 3.16 µM, first compound 1 µM
  viability, T/C: 82.8%
Second compound 3.16 µM, first compound 3.16 µM
  viability, T/C: 80.5%
Second compound 3.16 µM, first compound 10 µM
  viability, T/C: 61.3%
Second compound 10 µM, first compound 0.0316 µM
  viability, T/C: 91.4%
Second compound 10 µM, first compound 0.1 µM
  viability, T/C: 79.2%
Second compound 10 µM, first compound 0.316 µM
  viability, T/C: 68.8%
Second compound 10 µM, first compound 1 µM
  viability, T/C: 67.2%
Second compound 10 µM, first compound 3.16 µM
  viability, T/C: 91.1%
Second compound 10 µM, first compound 10 µM
  viability, T/C: 64.5%
